Where a SMILES comes first, the peptide text is derived from it.
Test: Peptide was tested for inhibition constant for competitive inhibition using Suc-AAPA-pNa and Pancreatic elastase

Structure (SMILES)	Ki [mM]
CC[C@H](C)[C@H](NC(=O)[C@H](CO)NC(=O)[C@H](CCSC)NC(=O)[C@@H]1CCCN1C(=O)[C@@H](NC(=O)[C@H](C)NC(=O)[C@H](CCC(=O)O)NC(=O)[C@H](CC(C)C)NC(=O)[C@H](Cc1ccccc1)NC(=O)[C@@H](N)CCSC)[C@@H](C)CC)C(=O)O	0.1
CSCC[C@H](N)C(=O)N[C@@H](Cc1ccccc1)C(=O)N[C@@H](CC(C)C)C(=O)N[C@@H](C)C(=O)O [(S)-2-{(S)-2-[(S)-2-((S)-2-Amino-4-methylsulfanyl-butyrylamino)-3-phenyl-propionylamino]-4-methyl-pentanoylamino}-propionic acid] (H-MFLA-OH)	1.1
CC[C@H](C)[C@H](NC(=O)[C@H](C)NC(=O)[C@H](CCC(=O)O)NC(=O)[C@H](CC(C)C)NC(=O)[C@H](Cc1ccccc1)NC(=O)[C@@H](N)CCSC)C(=O)N1CCC[C@H]1C(=O)N[C@@H](CCSC)C(=O)N[C@@H](CO)C(=O)O	5.8
